# Laboratory results: patent US12486228B2, “N-substituted indoles and use as allosteric modulators of cannabinoid receptors” (priority 2018, dated 2025)
# pEC50: −log10 of the molar value. Read-outs that look alike come from different tables or passages of the source.
# How the values were obtained:
# [1] = molecular target: T1, CB2 (Homo sapiens, UniProt P34972); test: cell-based; conditions: for pEC50 / Emax: CB2, agonist mode; for pEC50: read-out: CB2 Agonist mode cAMP EC50; for Emax: read-out: CB2 Agonist mode cAMP Emax
# T1 sequence (P34972 whole entry, species assumed): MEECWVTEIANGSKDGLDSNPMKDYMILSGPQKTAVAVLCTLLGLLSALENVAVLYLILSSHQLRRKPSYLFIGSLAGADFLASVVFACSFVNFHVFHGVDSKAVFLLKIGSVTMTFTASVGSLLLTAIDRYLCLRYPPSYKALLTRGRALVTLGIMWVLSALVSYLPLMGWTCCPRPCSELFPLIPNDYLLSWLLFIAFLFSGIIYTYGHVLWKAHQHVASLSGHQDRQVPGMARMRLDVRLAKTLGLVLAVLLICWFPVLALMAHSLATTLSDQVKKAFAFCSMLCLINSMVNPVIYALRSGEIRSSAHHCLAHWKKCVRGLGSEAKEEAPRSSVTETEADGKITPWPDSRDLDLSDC
# [2] = molecular target: T1, CB2; test: cell-based; conditions: for pEC50 / Emax: CB2, agonist mode; for pEC50: read-out: CB2 Agonist mode β-Arrestin EC50; for Emax: read-out: CB2 Agonist mode β-Arrestin Emax
# [3] = molecular target: T2, hCB1 (Homo sapiens, UniProt P21554); test: cell-based; design: host or cells: CHO-K1
# T2 sequence (P21554 whole entry): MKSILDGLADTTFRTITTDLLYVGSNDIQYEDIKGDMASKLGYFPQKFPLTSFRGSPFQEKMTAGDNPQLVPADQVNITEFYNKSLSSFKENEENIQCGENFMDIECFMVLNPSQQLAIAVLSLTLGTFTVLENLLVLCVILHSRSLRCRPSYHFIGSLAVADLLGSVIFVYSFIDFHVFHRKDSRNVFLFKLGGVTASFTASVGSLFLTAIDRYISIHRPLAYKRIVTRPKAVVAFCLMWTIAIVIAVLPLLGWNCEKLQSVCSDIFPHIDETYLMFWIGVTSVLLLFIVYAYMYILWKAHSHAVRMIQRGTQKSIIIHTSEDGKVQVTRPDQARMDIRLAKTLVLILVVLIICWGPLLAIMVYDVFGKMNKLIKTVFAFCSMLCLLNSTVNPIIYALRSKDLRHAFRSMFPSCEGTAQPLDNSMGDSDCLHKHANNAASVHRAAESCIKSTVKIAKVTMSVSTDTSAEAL
# Experimental: HitHunter cAMP assay: Inhibition of forskolin-stimulated cAMP was determined using the DiscoveRx HitHunter assay in hCB1R CHO-K1 cells. Cells (20,000 cells/well in low-volume 96 well plates) were incubated overnight in Opti-MEM (Invitrogen) containing 1% FBS at 37° C. and 5% CO2. Following this, Opti-MEM media was removed and replaced with cell assay buffer (DiscoveRx) and cells were co-treated at 37° C. with 10 μM forskolin and hCB1R ligands (0.10 nM-10 μM) for 30 min or 90 min cAMP antibody solution and cAMP working detection solutions were then added to cells according to the manufacturer's directions (DiscoveRx®) and cells were incubated for 60 min at room temperature. cAMP solution A was added according to the manufacturer's directions (DiscoveRx®) and cells were incubated for an additional 60 min at room temperature before chemiluminescence was measured on a Cytation 5 plate reader (top read, gain 200, integration time 10,000 ms).
# [4] = molecular target: T2, hCB1; test: cell-based; design: host or cells: CHO-K1 PathHunter
# Experimental: PathHunter CB1 β-Arrestin Assay: Chinese hamster ovary K1 (CHO-K1)-PathHunter hCB1 β-arrestin cells (DiscoveRx, Fremont, CA) were seeded at 5000 cells/well in 384-well plates 24 h before use and incubated at 37° C., 5% CO2. Compounds were dissolved in dimethyl sulfoxide (DMSO) and diluted in optimized cell culture (OCC) media. Agonist EC80 was determined directly from an agonist dose—response curve (data not shown). […] Five microliters of allosteric modulator or vehicle solution was added to each well at the appropriate concentrations and incubated for 30 min. Five microliters of agonist was then added to each well followed by a 90 min incubation. Fifteen microliters of detection reagent was then added followed by further 60 min incubation at room temperature. Chemiluminescence was measured on a standard luminescence plate reader as relative light units (RLU). Basal RLU was defined as zero. […] Data were analyzed using the fourparameter variable-slope and allosteric EC50 shift nonlinear regression equations in Prism 5.0 (GraphPad, San Diego, CA).
# [5] = tested on: normotensive C57Bl/6J mice; conditions: 0.2% GAT1102 combined with subthreshold 0.25% WIN55,212-2, topical, at 6 and 12 hrs, n=5, P<0.05
# Experimental: (§1) Normotensive C57Bl/6J mice and Sh3pxd2b mice were obtained from Jackson Laboratory (Bar Harbor, Maine). The Sh3pxd2b mice were bred in house, and their progenies with abnormal phenotypical morphology, identified as a nee mice, were used for experiments.
# (§2) Drug was administered topically (5 μl/eye) to the right eyes, while the left eyes received vehicle control (2% DMSO+4% Tween-20 in Tocrisolve; 5 μl).
# (§3) Mice were anesthetized with the isoflurane (3% induction, 1.5% maintenance). The intraocular pressure (TOP) was measured with a handheld rebound tonometer (Tonolab, Icare, Finland), calibrated to mouse. Ten recordings were taken for each eye and then averaged. The IOP readings were taken at time 0 (baseline), 1, 6 and 12 hrs after the drug/vehicle administration. All the measurements were taken at the same time of the day, in order to minimize variability related to diurnal changes in IOP.
# (§4) Data was analyzed by GraphPad version 6.0 (GraphPad Software, Inc., La Jolla, CA). Paired t-tests were used to compare between eyes of the same animal. A P value of <0.05 was considered significant. […] Values are represented as a change in IOP from the baseline (time 0).
# [6] = tested on: ocular hypertensive nee mice; conditions: GAT1102 0.2% alone, topical, at 1 and 12 hrs, n=6, P<0.05
# Experimental: as §1, §2, §3, §4
# [7] = tested on: excitatory postsynaptic currents (EPSCs)
# [8] = CB1, PAM mode, read-out: CB1 PAM mode cAMP EC50
# [9] = CB1, agonist mode, read-out: CB1 Agonist mode cAMP EC50
# [10] = read-out: CB1 Agonist mode cAMP Emax, CB1, agonist mode
# [11] = read-out: CB1 PAM mode cAMP Emax, CB1, PAM mode
# [12] = CB1, PAM mode, read-out: CB1 PAM mode β-Arrestin EC50
# [13] = CB1, agonist mode, read-out: CB1 Agonist mode β-Arrestin EC50
# [14] = read-out: CB1 Agonist mode β-Arrestin Emax
# [15] = read-out: CB1 PAM mode β-Arrestin Emax
SMILES,pEC50 [1],Emax [1],pEC50 [2],Emax [2],"pEC50 [3, 8]","pEC50 [3, 9]","Emax [3, 10]","Emax [3, 11]","pEC50 [4, 12]","pEC50 [4, 13]","Emax [4, 14]","Emax [4, 15]",CB2 Agonist mode cAMP Emax [1],also measured
"O=C(O)CCC(c1ccccc1)c1cn(-c2ccncc2)c2ccccc12 (centres unmarked) [Compound 23, 4-Phenyl-4-(1-(pyridin-4-yl)-1H-indol-3-yl)butanoic acid]",6.24,78%,< 5.00,0%,5.97,6.45,83%,104%,< 5.00,< 5.00,0%,0%,–,–
"O=C(O)CCC(c1ccccc1)c1c[nH]c2ccccc12 (centres unmarked) [Compound 28, 4-(1H-Pndol-3-yl)-4-phenylbutanoic acid]",< 5.00,29%,< 5.00,0%,5.36,5.01,60%,71%,< 5.00,< 5.00,0%,0%,–,–
"O=C(O)CCC(c1ccccc1)c1cn(C(=O)c2ccccc2)c2ccccc12 (centres unmarked) [Compound 29, 4-(1-Penzoyl-1H-indol-3-yl)-4-phenylbutanoic acid]",6.38,76%,< 5.00,0%,6.15,6.22,92%,114%,< 5.00,< 5.00,0%,0%,–,–
"CC(=O)CC(C)C(c1ccccc1)c1cn(-c2ccccc2)c2ccccc12 (centres unmarked) [Compound 41, 4-Methyl-5-phenyl-5-(1-phenyl-1H-indol-3-yl)pentan-2-one]",< 5.00,–,< 5.00,0%,< 5.00,< 5.00,0%,0%,< 5.00,< 5.00,0%,0%,(34) %,–
"CC(=O)CC(C)C(c1ccccc1)c1cn(-c2ccccc2)c2ccccc12 (centres unmarked) [Compound 42, 4-Methyl-5-phenyl-5-(1-phenyl-1H-indol-3-yl)pentan-2-one]",–,–,< 5.00,–,< 5.00,–,–,–,–,–,–,–,(0) %,"CB2 Agonist mode β-Arrestin Emax [2]: 0%; CB1 PAM mode cAMP Emax ([3]; CB1, PAM mode): (0) %; CB1 Agonist mode cAMP Emax ([3]; CB1, agonist mode): (0) %; CB1 PAM mode β-Arrestin Emax ([4]; CB1, PAM mode): (0) %; CB1 Agonist mode β-Arrestin Emax ([4]; CB1, agonist mode): (0) %"
"O=[N+]([O-])CC(c1ccccc1)c1c(-c2ccccc2)[nH]c2ccccc12 (centres unmarked) [GAT211, reference compound]",< 5.00,–,< 5.00,–,–,–,–,–,–,–,–,–,(0) %,"CB2 Agonist mode β-Arrestin Emax [2]: 0%; CB1 PAM mode cAMP Emax ([3]; CB1, PAM mode): (73) %; CB1 Agonist mode cAMP Emax ([3]; CB1, agonist mode): (94) %; CB1 PAM mode β-Arrestin Emax ([4]; CB1, PAM mode): (59) %; CB1 Agonist mode β-Arrestin Emax ([4]; CB1, agonist mode): (14) %"
"O=C(O)CCC(c1ccccc1)c1cn(-c2ccccc2)c2ccccc12 (centres unmarked) [GAT1102, 4-Phenyl-4-(1-phenyl-1H-indol-3-yl)butanoic acid]",–,–,–,–,–,–,–,–,–,–,–,–,–,"IOP compared to vehicle [5]: significantly lower; IOP change [6]: significantly decreased IOP; agonist properties (direct inhibition of EPSCs) ([7]; 1 μM GAT1102): exhibited agonist properties in some cells; PAM effect on depolarization-induced suppression of excitation (DSE) ([7]; slowing recovery for DSE, in most cases occluded by direct inhibition): some evidence of a modest GAT1102 PAM effect"
